Experimental data as given in ChEMBL document CHEMBL4308869, “Towards lead compounds as anti-cancer agents via new phaeosphaeride A derivatives” (Bioorg Med Chem Lett, 2019).
pIC50: −log10 of the molar value.

Columns and labels:
RPMI-8226 = test: Cytotoxicity against human RPMI8226 cells after 72 hrs by MTT assay; format: functional, cell-based; conditions: RPMI-8226, 72 h
MCF7 = test: Cytotoxicity against human MCF7 cells after 72 hrs by MTT assay; format: functional, cell-based; conditions: MCF7, 72 h
HEF = test: Cytotoxicity against HEF after 72 hrs by MTT assay; format: cell-based; conditions: Homo sapiens
HCT-116 [1] = test: Cytotoxicity against human HCT116 cells after 72 hrs by MTT assay; format: functional, cell-based; conditions: HCT-116, 72 h
K562 = test: Cytotoxicity against human K562 cells after 72 hrs by MTT assay; format: functional, cell-based; conditions: K562, 72 h
THP-1 = test: Cytotoxicity against human THP1 cells after 72 hrs by MTT assay; format: functional, cell-based; conditions: THP-1, 72 h
Jurkat = test: Cytotoxicity against human Jurkat cells after 72 hrs by MTT assay; format: functional, cell-based
NCI-H929 [2] = test: Cytotoxicity against human NCI-H929 cells after 72 hrs by MTT assay; format: functional, cell-based; conditions: NCI-H929, 72 h
A549 [3] = test: Cytotoxicity against human A549 cells after 72 hrs by MTT assay; format: functional, cell-based; conditions: A549, 72 h
PC-3 [4] = test: Cytotoxicity against human PC3 cells after 72 hrs by MTT assay; format: functional, cell-based; conditions: PC-3, 72 h
NCI-H929 [5] = test: Potency index, ratio of PPA IC50 to test compound IC50 for human NCI-H929 cells; format: functional
NCI-H929 [6] = test: Potency index, ratio of etoposide IC50 to test compound IC50 for human NCI-H929 cells; format: functional
A549 [7] = test: Potency index, ratio of etoposide IC50 to test compound IC50 for human A549 cells; format: functional
[8] = Therapeutic index, ratio of IC50 for HEF to IC50 for human NCI-H929 cells; format: toxicity; conditions: HEF cells versus NCI-H929 cells, read-out: Ratio IC50
A549 [9] = test: Potency index, ratio of PPA IC50 to test compound IC50 for human A549 cells; format: functional
HCT-116 [10] = test: Potency index, ratio of PPA IC50 to test compound IC50 for human HCT116 cells; format: functional
[11] = Therapeutic index, ratio of IC50 for HEF to IC50 for human HCT116 cells; format: toxicity; conditions: HEF cells versus HCT116 cells, read-out: Ratio IC50
PC-3 [12] = test: Potency index, ratio of PPA IC50 to test compound IC50 for human PC3 cells; format: functional

SMILES	pIC50 (RPMI-8226)	pIC50 (MCF7)	pIC50 (HEF)	pIC50 (HCT-116 [1])	pIC50 (K562)	pIC50 (THP-1)	pIC50 (Jurkat)	pIC50 (NCI-H929 [2])	pIC50 (A549 [3])	pIC50 (PC-3 [4])	Ratio IC50 (NCI-H929 [5])	Ratio IC50 (NCI-H929 [6])	Ratio IC50 (A549 [7])	selectivity ratio [8]	Ratio IC50 (A549 [9])	Ratio IC50 (HCT-116 [10])	selectivity ratio [11]	Ratio IC50 (PC-3 [12])
C=C1C2=C(C(=O)N1OC)[C@H](O)[C@@](C)(O)[C@H](CCCCC)O2	5.03	4.70	4.72	4.36	4.70	4.72	5.00	5.19	4.39	4.49	–	–	–	–	–	–	–	–
C=C1C2=C(C(=O)N1OC)[C@H](OC(=O)CSc1nc3ccccc3s1)[C@@](C)(O)[C@H](CCCCC)O2	5.70	5.20	4.96	5.33	5.37	5.80	5.64	6.23	5.23	5.30	11	1.5	16	18.6	7	–	–	–
C=C1C2=C(C(=O)N1OC)[C@H](OC(=O)CCCCCl)[C@@](C)(O)[C@H](CCCCC)O2	5.37	5.27	4.96	4.96	5.07	5.34	5.38	5.60	4.92	5.04	–	–	–	–	–	–	–	–
C=C1C2=C(C(=O)N1OC)[C@H](OC(=O)CSc1nc3ccccc3o1)[C@@](C)(O)[C@H](CCCCC)O2	5.29	5.41	5.03	5.31	5.35	5.64	5.59	5.52	4.70	5.24	–	–	–	–	–	–	–	–
COc1cc([C@@H]2c3cc4c(cc3[C@@H](O[C@@H]3O[C@@H]5CO[C@@H](C)O[C@H]5[C@H](O)[C@H]3O)[C@H]3COC(=O)[C@H]23)OCO4)cc(OC)c1O [ETOPOSIDE]	5.32	5.02	< 4.00	4.66	5.03	6.00	5.85	6.05	4.00	5.57	–	–	–	–	–	–	–	–
C=C1C2=C(C(=O)N1OC)[C@H](OC(=O)CCl)[C@@](C)(O)[C@H](CCCCC)O2	5.01	4.77	5.04	5.62	5.15	4.96	5.02	5.48	4.70	5.62	–	–	–	–	–	20	3.8	–
C=C1C2=C(C(=O)N1OC)[C@H](OC(=O)CSc1nc3ccccc3[nH]1)[C@@](C)(O)[C@H](CCCCC)O2	5.37	4.80	4.96	5.09	5.03	5.28	5.05	5.70	4.72	5.19	–	–	–	–	–	–	–	–
C=C1C2=C(C(=O)N1OC)[C@@H](F)[C@@](C)(O)[C@H](CCCCC)O2	4.80	4.43	4.43	4.51	4.74	4.72	4.82	5.41	4.38	4.92	–	–	–	–	–	–	–	3
